For four compounds, Ki and Ratio Ki results are on record in ChEMBL document CHEMBL2331549, “Cyclopropyl- and methyl-containing inhibitors of neuronal nitric oxide synthase” (Bioorg Med Chem, 2013).

In general, Ki refers to the equilibrium dissociation constant of an inhibitor or competing ligand from its target.

One assay concerns the target Nitric oxide synthase 1 (Rattus norvegicus, UniProt P29476). Kind of assay: Inhibition of rat nNOS expressed in Escherichia coli using L-arginine as substrate assessed as formation of nitric oxide by hemoglobin capture assay.
For another assay, the target named is T1, Nitric oxide synthase 3 (Bos taurus, UniProt P29473).
T1 sequence (P29473 whole entry): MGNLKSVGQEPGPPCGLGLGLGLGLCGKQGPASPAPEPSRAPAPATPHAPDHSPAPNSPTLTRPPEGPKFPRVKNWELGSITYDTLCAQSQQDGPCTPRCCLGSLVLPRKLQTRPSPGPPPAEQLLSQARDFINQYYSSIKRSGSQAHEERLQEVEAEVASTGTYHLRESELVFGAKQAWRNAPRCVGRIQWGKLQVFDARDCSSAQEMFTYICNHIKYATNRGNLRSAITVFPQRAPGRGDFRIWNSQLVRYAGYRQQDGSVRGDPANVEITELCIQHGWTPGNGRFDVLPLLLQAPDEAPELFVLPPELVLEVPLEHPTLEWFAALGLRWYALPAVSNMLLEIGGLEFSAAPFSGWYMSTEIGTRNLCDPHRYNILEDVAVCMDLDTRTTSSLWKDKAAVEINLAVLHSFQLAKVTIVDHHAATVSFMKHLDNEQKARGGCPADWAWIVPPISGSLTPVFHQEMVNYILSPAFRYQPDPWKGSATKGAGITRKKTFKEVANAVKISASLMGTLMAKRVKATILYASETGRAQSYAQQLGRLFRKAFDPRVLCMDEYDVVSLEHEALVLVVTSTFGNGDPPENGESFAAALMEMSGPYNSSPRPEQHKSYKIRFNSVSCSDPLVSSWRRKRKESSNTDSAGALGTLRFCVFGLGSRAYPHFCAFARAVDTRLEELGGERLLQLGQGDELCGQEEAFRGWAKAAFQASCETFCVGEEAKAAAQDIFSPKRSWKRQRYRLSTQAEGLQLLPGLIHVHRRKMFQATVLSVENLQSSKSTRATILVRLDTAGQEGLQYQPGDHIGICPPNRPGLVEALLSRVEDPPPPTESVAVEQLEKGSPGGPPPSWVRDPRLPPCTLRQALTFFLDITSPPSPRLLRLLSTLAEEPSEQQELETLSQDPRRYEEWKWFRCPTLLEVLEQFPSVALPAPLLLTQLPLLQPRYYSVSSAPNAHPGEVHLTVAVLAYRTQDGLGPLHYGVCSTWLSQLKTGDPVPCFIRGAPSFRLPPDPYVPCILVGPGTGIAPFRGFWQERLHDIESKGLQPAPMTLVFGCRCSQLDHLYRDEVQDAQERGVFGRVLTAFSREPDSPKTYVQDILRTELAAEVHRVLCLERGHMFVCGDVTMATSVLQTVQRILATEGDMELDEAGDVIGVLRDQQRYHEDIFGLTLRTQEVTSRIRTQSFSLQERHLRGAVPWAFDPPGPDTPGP
The experiment in a line: Inhibition of bovine eNOS expressed in Escherichia coli using L-arginine as substrate assessed as formation of nitric oxide by hemoglobin capture assay.

Assay [1] concerns the target T2, Nitric oxide synthase, inducible (Mus musculus, UniProt P29477).
T2 sequence (P29477 whole entry): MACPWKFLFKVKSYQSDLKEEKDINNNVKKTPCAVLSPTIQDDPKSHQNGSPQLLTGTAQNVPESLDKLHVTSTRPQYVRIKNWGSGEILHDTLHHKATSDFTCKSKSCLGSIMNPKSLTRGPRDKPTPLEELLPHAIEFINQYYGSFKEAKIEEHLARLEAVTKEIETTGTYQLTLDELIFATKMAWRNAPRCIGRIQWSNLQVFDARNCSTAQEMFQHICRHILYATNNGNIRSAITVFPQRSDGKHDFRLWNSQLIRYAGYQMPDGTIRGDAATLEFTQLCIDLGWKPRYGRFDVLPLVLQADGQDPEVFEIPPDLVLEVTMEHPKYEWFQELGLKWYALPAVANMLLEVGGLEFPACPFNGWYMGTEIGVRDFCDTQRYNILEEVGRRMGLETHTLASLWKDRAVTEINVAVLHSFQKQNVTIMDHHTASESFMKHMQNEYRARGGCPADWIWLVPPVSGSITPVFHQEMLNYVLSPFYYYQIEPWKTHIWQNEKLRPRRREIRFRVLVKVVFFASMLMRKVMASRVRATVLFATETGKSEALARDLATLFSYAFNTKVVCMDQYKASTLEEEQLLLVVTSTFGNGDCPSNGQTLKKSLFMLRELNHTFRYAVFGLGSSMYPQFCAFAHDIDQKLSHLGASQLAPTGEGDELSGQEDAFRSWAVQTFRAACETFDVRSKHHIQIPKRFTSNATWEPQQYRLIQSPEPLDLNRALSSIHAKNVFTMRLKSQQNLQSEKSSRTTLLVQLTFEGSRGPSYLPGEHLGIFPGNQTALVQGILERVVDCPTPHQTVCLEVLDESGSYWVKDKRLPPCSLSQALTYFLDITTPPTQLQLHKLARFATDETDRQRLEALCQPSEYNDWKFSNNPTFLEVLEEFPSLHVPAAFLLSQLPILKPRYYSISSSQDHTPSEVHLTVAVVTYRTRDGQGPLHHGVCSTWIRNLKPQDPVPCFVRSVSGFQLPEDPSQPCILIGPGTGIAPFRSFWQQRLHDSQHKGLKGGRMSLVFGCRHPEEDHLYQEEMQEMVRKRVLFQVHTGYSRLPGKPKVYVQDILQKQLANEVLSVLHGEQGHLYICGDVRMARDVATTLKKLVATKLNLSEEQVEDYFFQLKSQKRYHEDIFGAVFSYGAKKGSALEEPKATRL
The experiment in a line: Inhibition of mouse iNOS expressed in Escherichia coli using L-arginine as substrate assessed as formation of nitric oxide by hemoglobin capture assay.

A short description of assay [2]: Selectivity ratio of Ki for rat nNOS to Ki for bovine eNOS.
Assay [3] can be described thus: Selectivity ratio of Ki for rat nNOS to Ki for mouse iNOS.

Each structure is given as a SMILES string.

Sequence of Nitric oxide synthase 1 (P29476 whole entry): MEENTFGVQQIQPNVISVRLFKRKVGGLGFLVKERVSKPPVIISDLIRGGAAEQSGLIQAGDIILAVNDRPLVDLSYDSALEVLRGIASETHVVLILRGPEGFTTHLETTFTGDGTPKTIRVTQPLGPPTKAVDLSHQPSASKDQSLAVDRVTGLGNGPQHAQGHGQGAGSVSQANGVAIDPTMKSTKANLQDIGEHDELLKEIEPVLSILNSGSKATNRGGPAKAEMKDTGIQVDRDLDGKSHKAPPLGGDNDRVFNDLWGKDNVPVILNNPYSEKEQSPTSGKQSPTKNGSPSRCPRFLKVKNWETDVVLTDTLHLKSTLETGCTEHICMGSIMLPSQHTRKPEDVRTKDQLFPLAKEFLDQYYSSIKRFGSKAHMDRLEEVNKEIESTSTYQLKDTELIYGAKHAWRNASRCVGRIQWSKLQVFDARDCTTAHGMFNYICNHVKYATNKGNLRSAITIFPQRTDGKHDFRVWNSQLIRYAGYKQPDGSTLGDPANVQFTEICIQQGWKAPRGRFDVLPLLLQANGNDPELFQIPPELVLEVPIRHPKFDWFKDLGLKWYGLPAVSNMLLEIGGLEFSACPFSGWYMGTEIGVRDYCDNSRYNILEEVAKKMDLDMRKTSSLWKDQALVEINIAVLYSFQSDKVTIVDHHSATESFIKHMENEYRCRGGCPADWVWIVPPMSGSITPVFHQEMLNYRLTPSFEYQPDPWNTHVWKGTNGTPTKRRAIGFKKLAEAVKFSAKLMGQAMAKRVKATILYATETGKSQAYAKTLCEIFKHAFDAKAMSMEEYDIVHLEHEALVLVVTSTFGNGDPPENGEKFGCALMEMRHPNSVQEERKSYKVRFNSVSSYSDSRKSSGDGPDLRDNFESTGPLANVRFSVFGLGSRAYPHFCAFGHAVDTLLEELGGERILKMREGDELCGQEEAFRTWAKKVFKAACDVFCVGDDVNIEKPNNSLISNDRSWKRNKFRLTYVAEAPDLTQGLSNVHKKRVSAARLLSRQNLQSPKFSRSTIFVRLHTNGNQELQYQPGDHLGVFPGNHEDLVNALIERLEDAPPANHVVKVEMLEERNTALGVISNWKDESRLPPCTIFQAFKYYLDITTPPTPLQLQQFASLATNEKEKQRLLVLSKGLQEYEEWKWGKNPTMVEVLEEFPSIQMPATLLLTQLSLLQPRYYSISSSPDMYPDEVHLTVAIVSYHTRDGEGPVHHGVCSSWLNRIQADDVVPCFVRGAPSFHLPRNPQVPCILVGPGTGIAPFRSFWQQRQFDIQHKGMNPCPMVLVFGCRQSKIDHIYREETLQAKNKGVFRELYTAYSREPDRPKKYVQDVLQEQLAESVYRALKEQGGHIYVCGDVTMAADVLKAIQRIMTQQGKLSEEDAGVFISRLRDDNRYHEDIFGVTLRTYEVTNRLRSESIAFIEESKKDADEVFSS

As to `Cc1cc(N)nc(C[C@@H]2CNC[C@@H]2OCCN[C@H](C)Cc2cccc(F)c2)c1`, the inhibitory constant (Ki) at Nitric oxide synthase 1 was found to be 0.07 µM; at Nitric oxide synthase 3, 40 µM; in assay [1], 7.6 µM. The Ratio Ki in assay [2] was determined as 570; in assay [3], 110.
On to `Cc1cc(N)nc(C[C@@H]2CNC[C@@H]2OCCNC2CC2c2cccc(F)c2)c1` (mixture of isomers), for which the results for the inhibition constant (Ki) (at Nitric oxide synthase 1; at Nitric oxide synthase 3; in assay [1]) were 0.17 µM, 51 µM and 16 µM, respectively. Besides, the Ratio Ki stood at 300 in assay [2] and 94 in assay [3].
In the case of `Cc1cc(N)nc(C[C@@H]2CNC[C@@H]2OCCNC(C)Cc2cccc(F)c2)c1` (mixture of isomers), the Ratio Ki came out at 370 in assay [2] and 12 in assay [3].
In the same order, the values of `Cc1cc(N)nc(C[C@@H]2CNC[C@@H]2OCCNC2CC2c2cccc(Cl)c2)c1` (mixture of isomers) are 370 and 12.
